The record followed here is patent US20240166626A1, “Compounds and Methods for Preventing, Treating, or Ameliorating Airway Disease” (THOMAS JEFFERSON UNIVERSITY, priority 2021, published 2024).

The assay has as its target GRK5 (Homo sapiens, UniProt P34947). Nature of the assay: In vitro tubulin phosphorylation assay with purified GRK5. Type of assay: biochemical. Particulars: 10 μM DFPQ, FIG. 3C. The protocol: FIGS. 3A-3D: DFPQ inhibits GRK-mediated phosphorylation of the β2AR. FIG. 3A: Representative time course of agonist promoted phosphorylation of the β2AR. […] Cells were lysed and the FLAG-β2AR was immunoprecipitated. Phosphorylation at […] and 356 was analyzed by western blot using a pSer^355/356 antibody while total β2AR was measured using a β2AR C-terminal antibody. The western blot is representative of at least 3 experiments and is quantified in FIG. 3B. FIG. 3C: […] FIG. 3D: Bar graphs represent pixel densitometry of radiolabeled tubulin at the 60 min timepoint from 4 experiments. […]® ADRB2 cells (DiscoveRx) were maintained with the AssayCompleteTM Cell Culture kit (DiscoveRx catalog #92-[…]). […] Cells were read every three minutes for 18 minutes on a PolarStar Optima plate reader (BMG) to establish peak signal. […] Luminescence was determined at room temperature (23-25° C.) on a PolarStar Optima plate reader (BMG). […] Relative assay bias was calculated from the ratio of normalized cAMP and arrestin recruitment responses. […] BRET was measured using a Tecan Infinite F500 microplate reader. […] Bound [35 S]GTPγS was collected by rapid filtration on GF/B filters, washed 4 times with 4 ml of cold GTPγS wash buffer and analyzed by liquid scintillation counting. […] Immunoprecipitated proteins were separated by SDS-PAGE and analyzed by western blot using a β2AR C-terminal tail or phospho-specific antibody. […]

The structures appear in SMILES notation.

Chain of GRK5 (P34947 whole entry, species assumed): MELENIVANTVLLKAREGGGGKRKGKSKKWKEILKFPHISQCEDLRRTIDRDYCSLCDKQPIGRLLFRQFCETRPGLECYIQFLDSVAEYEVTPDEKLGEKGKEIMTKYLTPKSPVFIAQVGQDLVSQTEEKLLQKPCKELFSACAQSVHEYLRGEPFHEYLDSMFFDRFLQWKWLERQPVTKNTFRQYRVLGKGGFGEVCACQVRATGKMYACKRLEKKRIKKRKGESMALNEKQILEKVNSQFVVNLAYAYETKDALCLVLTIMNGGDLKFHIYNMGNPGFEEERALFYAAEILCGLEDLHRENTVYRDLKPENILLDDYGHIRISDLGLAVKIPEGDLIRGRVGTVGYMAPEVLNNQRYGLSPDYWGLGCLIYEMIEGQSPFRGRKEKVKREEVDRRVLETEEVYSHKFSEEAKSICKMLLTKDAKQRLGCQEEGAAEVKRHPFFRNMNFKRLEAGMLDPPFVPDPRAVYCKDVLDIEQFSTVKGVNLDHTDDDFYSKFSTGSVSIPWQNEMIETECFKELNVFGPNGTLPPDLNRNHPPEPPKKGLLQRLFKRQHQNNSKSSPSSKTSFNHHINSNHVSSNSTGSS

On to `Fc1ccc(Nc2nc(NC3CCCCC3)c3ccccc3n2)cc1F` [DFPQ, N^4-cyclohexyl-N^2-(3,4-difluorophenyl)quinazoline-2,4-diamine], for which the GRK5 autophosphorylation result was “lack of an effect”. The “phosphorylation of tubulin by GRK5” value (60-minute time course) is “unaffected”.
